Experimental findings from patent publication US7595401B2, “Therapeutic compounds and their use in cancer” (Myriad Pharmaceuticals, Inc., priority 2006, dated 2009) are described below.

The structures appear in SMILES notation.

The term % Inhibition denotes the change of the read-out against control, counted positive when it falls. Low readings indicate a weak effect, high ones a strong effect. The term IC50 denotes the concentration that inhibits the measured activity by half. A high value points to a need for much substance.

In one test the test system is purified human Hsp90. Nature of the test: Binding Assay: fluorescence polarization with BODIPY-labeled geldanamycin. The settings on record: 5 μM compound, BODIPY-GM 10 nM, Hsp90 30 nM. In a few lines: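 Compounds in 2% DMSO final compete with 10 nM BODIPY-GM for 30 nM purified human Hsp90, incubated overnight at room temperature in pH 7.3 HEPES buffer containing Na2MoO4 and DTT. Polarization (mP, ex/em 485/530) normalized to DMSO gives percent inhibition; autofluorescence-confounded data excluded.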
Take `CC(=O)N1CCC(CCn2cnc(N)c3nc(Sc4ccc5c(c4)OC(F)(F)O5)nc2-3)CC1` [Example 572, 3-[2-(1-Acetylpiperidin-4-yl)ethyl]-8-[(2,2-difluoro-1,3-benzodioxol-5-yl)thio]-3 H-purin-6-amine]: the “% Inhibition at 5 μM Compound Concentration” value (shortened to “% Inhibition”) is recorded as 0.00%. Still for that read-out and setting: the figure for `CC(C)(C)OC(=O)N1CCC(Cn2cnc(N)c3nc(Sc4cc5c(cc4Br)OCO5)nc2-3)CC1` [Example 640, tert-Butyl 4-({6-amino-8-[(6-bromo-1,3-benzodioxol-5-yl)thio]-3 H-purin-3-yl}methyl)piperidine-1-carboxylate] is 19.00%; for `COc1ccc(OC)c(Sc2nc3c(N)ncn(CCc4ccccc4[N+](=O)[O-])c-3n2)c1` [Example 206, 8-(2,5-dimethoxy-phenylsulfanyl)-3-[2-(2-nitro-phenyl)-ethyl]-3H-purin-6-ylamine] it is 0%. Consider `Nc1ncn(CCc2cccnc2)c2nc(Sc3cc4c(cc3Br)OCO4)nc1-2` [Example 152, 8-(6-bromo-benzo[1,3]dioxol-5-ylsulfanyl)-3-(2-pyridin-3-yl-ethyl)-3H-purin-6-ylamine], for which the “% Inhibition” value is listed as 20%. `COc1cccc(CCn2cnc(N)c3nc(Sc4cc5c(cc4Br)OCO5)nc2-3)c1` [Example 309, 8-[(6-Bromo-1,3-benzodioxol-5-yl)thio]-3-[2-(3-methoxyphenyl)ethyl]-3H-purin-6-amine]: the “% Inhibition” value amounted to 25.0%.

`CCOc1cc(CCn2c(Sc3cc4c(cc3Br)OCO4)nc3c(N)ncnc32)ccc1OC` [Example 117, 8-(6-Bromo-benzo[1,3]dioxol-5-ylsulfanyl)-9-[2-(3-ethoxy-4-methoxy-phenyl)-ethyl]-9H-purin-6-ylamine]: the “% Inhibition” value is listed as 54%. `Nc1ncn(CCc2cccc(I)c2)c2nc(Sc3cc4c(cc3Br)OCO4)nc1-2` [Example 154, 8-(6-Bromo-benzo[1,3]dioxol-5-ylsulfanyl)-3-[2-(3-iodo-phenyl)-ethyl]-3H-purin-6-ylamine]: the “% Inhibition” value is reported as above 10%. As for `COc1cc(Sc2nc3c(N)ncn(CCC4CCN(C=O)CC4)c-3n2)c2ocnc2c1` [Example 535, 4-(2-{6-Amino-8-[(5-methoxy-1,3-benzoxazol-7-yl)thio]-3 H-purin-3-yl}ethyl)piperidine-1-carbaldehyde], the “% Inhibition” value came out at 1.00%. On the same count and under the same terms, next, `CC(C)(C)OC(=O)N1CCCC[C@@H]1CCn1cnc(N)c2nc(Sc3cc4c(cc3Br)OCO4)nc1-2` [Example 395, tert-Butyl (2R)-2-(2-{6-amino-8-[(6-bromo-1,3-benzodioxol-5-yl)thio]-3H-purin-3-yl}ethyl)piperidine-1-carboxylate]: 0%.

`Nc1ncn(CCc2ccc(-c3ccccc3)cc2)c2nc(Sc3cc4c(cc3Br)OCO4)nc1-2` [Example 172, 3-(2-biphenyl-4-yl-ethyl)-8-(6-bromo-benzo[1,3]dioxol-5-ylsulfanyl)-3H-purin-6-ylamine]: the “% Inhibition” value is recorded as above 10%.

Consider `CCOc1cc(CCn2cnc(N)c3nc(Sc4cc5c(cc4Br)OCO5)nc2-3)ccc1OC` [Example 118, 8-(6-bromo-benzo[1,3]dioxol-5-ylsulfanyl)-3-[2-(3-ethoxy-4-methoxy-phenyl)-ethyl]-3H-purin-6-ylamine], for which the “% Inhibition” value turned out to be 0%. As for `COc1ccc(F)cc1Sc1nc2c(N)ncn(CCc3ccccc3)c-2n1` [Example 313, 8-[(5-Fluoro-2-methoxyphenyl)thio]-3-(2-phenylethyl)-3H-purin-6-amine], the “% Inhibition” value turned out to be 3.0%. As for `Nc1ncnc2c1nc(Sc1cc(OC(F)(F)F)ccc1OC1CCCC1)n2CCc1ccccc1Cl` [Example 329, 9-[2-(2-Chlorophenyl)ethyl]-8-{[2-(cyclopentyloxy)-5-(trifluoromethoxy)phenyl]thio}-9H-purin-6-amine], the “% Inhibition” value was 25.0%. Take `CCOC(=O)[C@@H]1C[C@H](CCn2cnc(N)c3nc(Sc4cc5c(cc4Br)OCO5)nc2-3)CCN1` (relative stereo) [Example 482, Ethyl cis-4-(2-{6-amino-8-[(6-bromo-1,3-benzodioxol-5-yl)thio]-3 H-purin-3-yl}ethyl)piperidine-2-carboxylate]: the “% Inhibition” value is listed as 0.0%. On to `CC(C)(C)OC(=O)N1C=C(CCn2cnc(N)c3nc(Sc4cc5c(cc4Br)OCO5)nc2-3)CCC1` [Example 463, tert-Butyl 5-(2-{6-amino-8-[(6-bromo-1,3-benzodioxol-5-yl)thio]-3H-purin-3-yl}ethyl)-3,4-dihydropyridine-1(2 H)-carboxylate], for which the “% Inhibition” value is listed as 14%.

The same test, now with this note: BODIPY-GM 10 nM, Hsp90 30 nM.
For the molecule `Nc1ncnc2c1nc(Sc1cc3c(cc1Br)OCO3)n2CCn1cnc2ccccc2c1=O` [Example 269, 3-(2-{6-Amino-8-[(6-bromo-1,3-benzodioxol-5-yl)thio]-9H-purin-9-yl}ethyl)quinazolin-4(3 H)-one], the IC50 was 5.5 µM. As to `Nc1ncnc2c1nc(Sc1cc3c(cc1Br)OCO3)n2CCc1c(F)cccc1Cl` [Example 130, 8-(6-Bromo-benzo[1,3]dioxol-5-ylsulfanyl)-9-[2-(2-chloro-6-fluoro-phenyl)-ethyl]-9H-purin-6-ylamine], the IC50 came out at 0.04 µM. As for `CC(C)(C)OC(=O)N1CC[C@H](CCn2c(Sc3cc4c(cc3Br)OCO4)nc3c(N)ncnc32)C1` [Example 418, tert-Butyl (3R)-3-(2-{6-amino-8-[(6-bromo-1,3-benzodioxol-5-yl)thio]-9H-purin-9-yl}ethyl)pyrrolidine-1-carboxylate], the IC50 was 0.3 µM. With `COc1cc(C#N)c(Sc2nc3c(N)ncnc3n2CCC2CCN(C(C)=O)CC2)cc1OC` [Example 622, 2-({9-[2-(1-Acetylpiperidin-4-yl)ethyl]-6-amino-9 H-purin-8-yl}thio)-4,5-dimethoxybenzonitrile], the IC50 was above 5 µM. On to `CS(=O)(=O)N1CCCCC1CCn1c(Sc2cc3c(cc2Br)OCO3)nc2c(N)ncnc21` (centres unmarked) [Example 372, 8-[(6-Bromo-1,3-benzodioxol-5-yl)thio]-9-{2-[1-(methylsulfonyl)piperidin-2-yl]ethyl}-9H-purin-6-amine], for which the IC50 is 0.1 µM. The same measure, in the same setting: the figure for `CC(C)C[C@H](N)C(=O)N1CCC(CCn2c(Sc3cc4c(cc3Br)OCO4)nc3c(N)ncnc32)CC1` [Example 744, 9-(2-{1-[(2S)-2-Amino-4-methylpentanoyl]piperidin-4-yl}ethyl)-8-[(6-bromo-1,3-benzodioxol-5-yl)thio]-9H-purin-6-amine] is 0.068 µM; for `CCOc1cc(CCn2c(Sc3cc4c(cc3Br)OCO4)nc3c(N)ncnc32)ccc1OC` [Example 117, 8-(6-Bromo-benzo[1,3]dioxol-5-ylsulfanyl)-9-[2-(3-ethoxy-4-methoxy-phenyl)-ethyl]-9H-purin-6-ylamine] it is 0.3 µM. With `Nc1ncnc2c1nc(Sc1cc3c(cc1Br)OCO3)n2CCC1CCN(C(=O)[C@@H]2CCCN2)CC1` [Example 753, 8-[(6-Bromo-1,3-benzodioxol-5-yl)thio]-9-[2-(1-L-prolyl-piperidin-4-yl)ethyl]-9H-purin-6-amine], the IC50 worked out at 0.059 µM. `Nc1ncnc2c1nc(Sc1cc3c(cc1Br)OCO3)n2CCC1CCCNC1` (centres unmarked) [Example 466, 8-[(6-Bromo-1,3-benzodioxol-5-yl)thio]-9-(2-piperidin-3-ylethyl)-9H-purin-6-amine] displayed an IC50 of 0.06 µM. As for `Nc1ncnc2c1nc(Sc1ccc3c(c1)OCO3)n2CCc1ccccc1Cl` [Example 289, 8-(1,3-Benzodioxol-5-ylthio)-9-[2-(2-chlorophenyl)ethyl]-9H-purin-6-amine], the IC50 amounted to 1.6 µM. The molecule `COc1ccc(OC)c(Sc2nc3c(N)ncn(CCc4ccc(C(C)=O)cc4)c-3n2)c1` [Example 64, 1-(4-{2-[6-amino-8-(2,5-dimethoxy-phenylsulfanyl)-purin-3-yl]-ethyl}-phenyl)-ethanone] displayed an IC50 above 5 µM. On the same count and under the same terms, next, `Nc1ncnc2c1nc(Sc1cc3c(cc1Br)OCO3)n2CCC1CNC1` [Example 483, 9-(2-Azetidin-3-ylethyl)-8-[(6-bromo-1,3-benzodioxol-5-yl)thio]-9 H-purin-6-amine]: 0.184 µM; `COc1cc(Sc2nc3c(N)ncnc3n2CCC2CCN(C=O)CC2)c2ocnc2c1` [Example 534, 4-(2-{6-Amino-8-[(5-methoxy-1,3-benzoxazol-7-yl)thio]-9 H-purin-9-yl}ethyl)piperidine-1-carbaldehyde]: 5 µM; `CCOc1ccc(OCC)c(Sc2nc3c(N)ncnc3n2CCC2CCN(C(=O)OC(C)(C)C)CC2)c1` [Example 362, tert-Butyl 4-(2-{6-amino-8-[(2,5-diethoxyphenyl)thio]-9H-purin-9-yl}ethyl)piperidine-1-carboxylate]: above 25 µM. `COc1ccc(OC)c(Sc2nc3c(N)ncn(CCc4ccccc4OC)c-3n2)c1` [Example 86, 8-(2,5-dimethoxy-phenylsulfanyl)-3-[2-(2-methoxy-phenyl)-ethyl]-3H-purin-6-ylamine]: the IC50 was above 5 µM. Molecule `COc1ccc(OC)c(Sc2nc3c(N)nc(F)nc3n2CCc2ccccc2)c1` [Example 230, 8-[(2,5-Dimethoxyphenyl)thio]-2-fluoro-9-(2-phenylethyl)-9H-purin-6-amine] gave an IC50 of 0.21 µM.

The molecule `CC(C)(C)OC(=O)N1CCCC(Cn2c(Sc3cc4c(cc3Br)OCO4)nc3c(N)ncnc32)C1` (centres unmarked) [Example 641, tert-Butyl 3-({6-amino-8-[(6-bromo-1,3-benzodioxol-5-yl)thio]-9 H-purin-9-yl}methyl)piperidine-1-carboxylate] had an IC50 of 1.1 µM. With `CC(=O)N1CCC(CCn2c(Sc3nc4cccc(Cl)c4s3)nc3c(N)ncnc32)CC1` [Example 657, 9-[2-(1-Acetylpiperidin-4-yl)ethyl]-8-[(7-chloro-1,3-benzothiazol-2-yl)thio]-9H-purin-6-amine], the IC50 came to 0.19 µM.

Turning to `COc1ccc(OC)c(Sc2nc3c(N)ncnc3n2CCc2ccccn2)c1` [Example 135, 8-(2,5-Dimethoxy-phenylsulfanyl)-9-(2-pyridin-2-yl-ethyl)-9H-purin-6-ylamine], the half-maximal inhibitory concentration (IC50) came to 1.3 µM. Take `COc1cc(Sc2nc3c(N)ncn(CCCc4ccccc4)c-3n2)cc(OC)c1OC` [Example 48, 3-(3-phenyl-propyl)-8-(3,4,5-trimethoxy-phenylsulfanyl)-3H-purin-6-ylamine]: the IC50 is above 10 µM.
